Molecules are shown by their SMILES. Several values for one entry are separate records, joined by “and”; a condition that tells them apart may be missing. Equal entries are not always repeated.

These results are taken from PubChem BioAssay AID1845210 (Molecular Pharmacology Branch, DTP, NCI, 2023).

This test deals with NCI-H226 complex tumor spheroids, viability. Nature of the test: Anticancer human tumor NCI-H226 cell line growth inhibition.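 For all read-outs here: spheroids exposed to compound for 7 days.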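 For viability, T/C: 100% = DMSO vehicle control viability.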 Particulars: for viability, T/C: stronger effect = lower value. The source says:
Multicellular complex tumor spheroid response to DNA repair inhibitors in combination with DNA-damaging drugs
This study explores the anticancer activities of DNA-damaging drugs and inhibitors of DNA damage repair, both as single agents and in combinations. Complex tumor spheroids comprised of malignant cells, endothelial cells and mesenchymal stem cells served as an in vitro model for human solid tumors. This model system incorporates physiologically relevant features and patient-derived or established malignant cell lines with clinically relevant genetic alterations from many tumor types. Twenty-six patient-derived or established malignant cell lines were evaluated representing sarcoma, melanoma, small cell lung cancer (SCLC), non-small cell lung cancer (NSCLC), as well as bladder, ovarian and pancreatic cancers. The concentration ranges selected for each drug and investigational agent were based upon clinically achievable concentrations if the clinical Cmax of the agent was known.
Compounds. The drugs and compounds olaparib (NSC753686), talazoparib (NSC767125), berzosertib (NSC777718), elimusertib (NSC800525), nedisertib (NSC802822), VX-984 (NSC792969), AZD-1390 (NSC803789), temozolomide (NSC362856), topotecan (NSC609699), trabectedin (NSC813783), staurosporine (NSC755774), and gemcitabine (NSC613327) were obtained from the National Cancer Institute (NCI) Developmental Therapeutics Program Chemical Repository. The FDA-approved anticancer drug set is available from the Developmental Therapeutics Program at https://dtp.cancer.gov/organization/dscb/obtaining/available_plates.htm. […] The stock solutions were prepared in dimethyl sulfoxide (DMSO, Sigma-Aldrich, St. Louis, MO, cat. D2650) at 400-fold the tested concentration and stored at -70 degrees C. Prior to their use, the stock solutions were diluted in fresh medium and the final DMSO concentration in the assay was 0.25% (v/v). All drugs and investigational agents were tested over a range starting from a high concentration at or near the clinical Cmax and decreasing in half-log increments. If the clinical Cmax for an agent had not been determined, the highest concentration tested was 10 microM.
Cell Lines. The patient-derived cancer cell (PDC) lines: 156681-154-R-J1-PDC, 283228-195-R-J1-PDC, 287954-098-R-J1-PDC, 292921-168-R-J2-PDC, 349418-098-R-PDC, 425362-245-T-J1-PDC, 556581-035-R-J1-PDC, and BL0293-F563-PDC were received from the NCI Patient-Derived Models Repository (PDMR, https://pdmr.cancer.gov). The established cell lines HS-SY-2 (RRID:CVCL_8719), MPNST, and SYO-1 (RRID:CVCL_7146) were obtained from the Sloan Kettering Institute. The alveolar soft parts sarcoma cell line ASPS-1 (RRID:CVCL_S738) was established at the NCI and grown from internal seed stocks. The following established cell lines were purchased from the American Type Culture Collection (ATCC, Manassas, VA): G-401 (ATCC, cat. CRL-1441, RRID:CVCL_0270), SW982 (ATCC, cat. HTB-93, RRID:CVCL_1734), VA-ES-BJ (ATCC, cat. CRL-2138, RRID:CVCL_1785), NCI-H719 (ATCC, cat. CRL-5837, RRID:CVCL_1582), NCI-H196 (ATCC, cat. CRL-5823, RRID:CVCL_1509), NCI-H841 (ATCC, cat. CRL-5845, RRID:CVCL_1595), NCI-H1618 (ATCC, cat. CRL-5879, RRID:CVCL_1480), NCI-H1876 (ATCC, cat. CRL-5902, RRID:CVCL_1503), DMS 114 (ATCC, cat. CRL-2066; RRID:CVCL_1174), NCI-H211 (ATCC, cat. CRL-5824; RRID:CVCL_1529), and SW 1271 (ATCC, cat. CRL-2177, RRID:CVCL_1716). The small cell lung cancer cell line COR-L88 was purchased from Sigma-Aldrich (cat. 92031917-1VL, RRID:CVCL_1141). The non-small cell lung cancer cell lines NCI-H226 (RRID:CVCL_1544) and NCI-H322M (RRID:CVCL_1557) were established at the NCI and grown from internal seed stocks. Pooled donor human umbilical vein endothelial cells (HUVEC, Lonza, cat. CC-2519) and human mesenchymal stem cells (hMSC, Lonza, cat. PT-2501) were purchased from Lonza (Walkersville, MD).
Cell Culture. All cells were maintained in an incubator at 37 degrees C and 5% CO2 with 95% humidity. […]

`CC(C)n1c(=O)n(C)c2cnc3cc(F)c(-c4ccc(OCCCN5CCCCC5)nc4)cc3c21`: the viability, T/C is 99.6% and 101% and 93.1% (compound 0.0316 µM); 103% and 96.9% and 104% (compound 0.1 µM); 103% and 112% and 102% (compound 0.316 µM); 111% and 98% and 84.2% (compound 1 µM); 107% and 97.5% and 102% (compound 3.16 µM). The IC50 (curve of compound) is > 10 µM and 5.69 µM and 7.57 µM.
In the case of `COc1ccc([C@@H](O)c2cc(-c3ncnc4cc(N5CCOCC5)ccc34)c(F)cc2Cl)nn1`, the viability, T/C was 96.6% and 91% and 98.2% (compound 0.0316 µM); 93.2% and 99.9% and 94.4% (compound 0.1 µM); 89.3% and 96.3% and 93.6% (compound 0.316 µM); 80.3% and 71.2% and 82.1% (compound 1 µM); 54.6% and 52.2% and 55.1% (compound 3.16 µM); 39.5% and 35.6% (2×) (compound 10 µM). Besides, the IC50 (curve of compound) was 4.63 µM and 3.04 µM and 4.29 µM.
Turning to `O=C(c1cc(Cc2n[nH]c(=O)c3ccccc23)ccc1F)N1CCN(C(=O)C2CC2)CC1`, the viability, T/C (compound 0.0949 µM) is 98.6% and 105% and 103%; the viability, T/C (compound 0.3 µM) was 97.1% and 100% and 96.8%; the viability, T/C (compound 0.949 µM) is 104% (2×) and 101%; the viability, T/C (compound 3 µM) is 98.5% and 99.3% and 93.9%; the viability, T/C (compound 9.49 µM) is 96.9% and 87.4% and 106%; the viability, T/C (compound 30 µM) is 92.1% and 79% and 86.7%. In addition, the IC50 (curve of compound) was more than 30 µM.
In the case of `Cc1sc2c(c1C)C(c1ccc(Cl)cc1)=NC(CC(=O)Nc1ccc(O)cc1)c1nnc(C)n1-2` (stereo not given) + CC[C@@]1(O)C(=O)OCc2c1cc1n(c2=O)Cc2cc3c(CN(C)C)c(O)ccc3nc2-1, the IC50 is, setting by setting: (curve of first compound, second compound 0.003 µM) 1.46 µM; (curve of first compound, second compound 0.00949 µM) 1.29 µM; (curve of first compound, second compound 0.03 µM) 0.431 µM; (curve of first compound, second compound 0.0949 µM) 0.094 µM; (curve of first compound, second compound 0.3 µM) less than 0.00949 µM. Besides, the viability, T/C is 71.9% (second compound 0.003 µM, first compound 0.00949 µM); 68.5% (second compound 0.003 µM, first compound 0.03 µM); 65.8% (second compound 0.003 µM, first compound 0.0949 µM); 60.2% (second compound 0.003 µM, first compound 0.3 µM); 54% (second compound 0.003 µM, first compound 0.949 µM); 43.9% (second compound 0.003 µM, first compound 3 µM). For the same compound, the viability, T/C runs as follows: (second compound 0.00949 µM, first compound 0.00949 µM) 69.9%; (second compound 0.00949 µM, first compound 0.03 µM) 62%; (second compound 0.00949 µM, first compound 0.0949 µM) 68.9%; (second compound 0.00949 µM, first compound 0.3 µM) 61%; (second compound 0.00949 µM, first compound 0.949 µM) 50%; (second compound 0.00949 µM, first compound 3 µM) 43%. Besides, the viability, T/C was 63.9% (second compound 0.03 µM, first compound 0.00949 µM); 57.9% (second compound 0.03 µM, first compound 0.03 µM); 53.9% (second compound 0.03 µM, first compound 0.0949 µM); 54.2% (second compound 0.03 µM, first compound 0.3 µM); 45.4% (second compound 0.03 µM, first compound 0.949 µM); 44.6% (second compound 0.03 µM, first compound 3 µM). The viability, T/C (second compound 0.0949 µM, first compound 0.00949 µM) is 71.3%; the viability, T/C (second compound 0.0949 µM, first compound 0.03 µM) was 52.9%; the viability, T/C (second compound 0.0949 µM, first compound 0.0949 µM) is 50.5%; the viability, T/C (second compound 0.0949 µM, first compound 0.3 µM) is 54.9%; the viability, T/C (second compound 0.0949 µM, first compound 0.949 µM) was 43%; the viability, T/C (second compound 0.0949 µM, first compound 3 µM) is 41.6%. Moreover, the viability, T/C is 50.3% (second compound 0.3 µM, first compound 0.00949 µM); 45.8% (second compound 0.3 µM, first compound 0.03 µM); 43.6% (second compound 0.3 µM, first compound 0.0949 µM); 44.4% (second compound 0.3 µM, first compound 0.3 µM); 37% (second compound 0.3 µM, first compound 0.949 µM); 27.1% (second compound 0.3 µM, first compound 3 µM).

By viability, T/C is commonly meant the ratio of treated to control. A word on the IC50: it is the concentration that inhibits the measured activity by half.
